Assay results reported in the NIST ThermoML archive (doi:10.1021/acs.jced.6b00688).

Assay: xn = mol fraction of the nth substance listed
Conditions: 100 kPa, Liquid; for viscosity: Falling or rolling sphere viscometry; for mass density: Vibrating tube method

CCCCCCCO [heptan-1-ol] + CC1CCCCC1
Conditions	mass density [kg/m3]	viscosity [mPa·s]
293.15 K, x2 = 0.1004	817.38	5.541
293.15 K, x2 = 0.1991	812.34	4.404
293.15 K, x2 = 0.3134	806.43	3.336
293.15 K, x2 = 0.399	801.91	2.649
293.15 K, x2 = 0.4994	796.51	2.055
293.15 K, x2 = 0.5997	790.98	1.603
293.15 K, x2 = 0.6987	785.57	1.275
293.15 K, x2 = 0.7995	779.94	1.03
293.15 K, x2 = 0.8995	774.56	0.845
298.15 K, x2 = 0.1004	813.81	4.649
298.15 K, x2 = 0.1991	808.71	3.773
298.15 K, x2 = 0.3134	802.7	2.924
298.15 K, x2 = 0.399	798.1	2.325
298.15 K, x2 = 0.4994	792.62	1.83
298.15 K, x2 = 0.5997	787	1.448
298.15 K, x2 = 0.6987	781.49	1.165
298.15 K, x2 = 0.7995	775.77	0.951
298.15 K, x2 = 0.8995	770.3	0.79
303.15 K, x2 = 0.1004	810.21	4.037
303.15 K, x2 = 0.1991	805.04	3.261
303.15 K, x2 = 0.3134	798.92	2.548
303.15 K, x2 = 0.399	794.25	2.055
303.15 K, x2 = 0.4994	788.68	1.64
303.15 K, x2 = 0.5997	782.98	1.314
303.15 K, x2 = 0.6987	777.38	1.068
303.15 K, x2 = 0.7995	771.56	0.879
303.15 K, x2 = 0.8995	766	0.736
308.15 K, x2 = 0.1004	806.59	3.484
308.15 K, x2 = 0.1991	801.33	2.838
308.15 K, x2 = 0.3134	795.12	2.235
308.15 K, x2 = 0.399	790.37	1.827
308.15 K, x2 = 0.4994	784.72	1.476
308.15 K, x2 = 0.5997	778.93	1.197
308.15 K, x2 = 0.6987	773.24	0.983
308.15 K, x2 = 0.7995	767.32	0.816
308.15 K, x2 = 0.8995	761.67	0.702
313.15 K, x2 = 0.1004	802.94	3.027
313.15 K, x2 = 0.1991	797.6	2.485
313.15 K, x2 = 0.3134	791.3	1.932
313.15 K, x2 = 0.399	786.47	1.633
313.15 K, x2 = 0.4994	780.73	1.335
313.15 K, x2 = 0.5997	774.85	1.094
313.15 K, x2 = 0.6987	769.07	0.907
313.15 K, x2 = 0.7995	763.06	0.759
313.15 K, x2 = 0.8995	757.31	0.645
318.15 K, x2 = 0.1004	799.26	2.643
318.15 K, x2 = 0.1991	793.83	2.188
318.15 K, x2 = 0.3134	787.42	1.749
318.15 K, x2 = 0.399	782.53	1.468
318.15 K, x2 = 0.4994	776.7	1.213
318.15 K, x2 = 0.5997	770.74	1.004
318.15 K, x2 = 0.6987	764.87	0.84
318.15 K, x2 = 0.7995	758.76	0.708
318.15 K, x2 = 0.8995	752.93	0.607
323.15 K, x2 = 0.1004	795.54	2.322
323.15 K, x2 = 0.1991	790.03	1.937
323.15 K, x2 = 0.3134	783.52	1.559
323.15 K, x2 = 0.399	778.55	1.324
323.15 K, x2 = 0.4994	772.64	1.106
323.15 K, x2 = 0.5997	766.59	0.924
323.15 K, x2 = 0.6987	760.64	0.779
323.15 K, x2 = 0.7995	754.43	0.662
323.15 K, x2 = 0.8995	748.52	0.572
328.15 K, x2 = 0.1004	791.78	2.05
328.15 K, x2 = 0.1991	786.18	1.723
328.15 K, x2 = 0.3134	779.58	1.396
328.15 K, x2 = 0.399	774.54	1.2
328.15 K, x2 = 0.4994	768.55	1.011
328.15 K, x2 = 0.5997	762.41	0.853
328.15 K, x2 = 0.6987	756.36	0.725
328.15 K, x2 = 0.7995	750.06	0.621
328.15 K, x2 = 0.8995	744.07	0.54
333.15 K, x2 = 0.1004	787.98	1.82
333.15 K, x2 = 0.1991	782.3	1.541
333.15 K, x2 = 0.3134	775.6	1.254
333.15 K, x2 = 0.399	770.5	1.092
333.15 K, x2 = 0.4994	764.42	0.928
333.15 K, x2 = 0.5997	758.17	0.789
333.15 K, x2 = 0.6987	752.05	0.676
333.15 K, x2 = 0.7995	745.66	0.584
333.15 K, x2 = 0.8995	739.59	0.512

CCCCCCCO [heptan-1-ol] + CCCCCCCCCCCC
Conditions	mass density [kg/m3]	viscosity [mPa·s]
293.15 K, x2 = 0.0998	810.76	5.346
293.15 K, x2 = 0.2005	800.65	4.224
293.15 K, x2 = 0.302	791.28	3.358
293.15 K, x2 = 0.3991	783.4	2.778
293.15 K, x2 = 0.4989	776.02	2.363
293.15 K, x2 = 0.5994	769.4	2.052
293.15 K, x2 = 0.6975	763.54	1.835
293.15 K, x2 = 0.7959	758.2	1.677
293.15 K, x2 = 0.8984	753.19	1.538
298.15 K, x2 = 0.0998	807.24	4.555
298.15 K, x2 = 0.2005	797.07	3.626
298.15 K, x2 = 0.302	787.66	2.917
298.15 K, x2 = 0.3991	779.77	2.444
298.15 K, x2 = 0.4989	772.37	2.098
298.15 K, x2 = 0.5994	765.74	1.837
298.15 K, x2 = 0.6975	759.88	1.653
298.15 K, x2 = 0.7959	754.54	1.516
298.15 K, x2 = 0.8984	749.53	1.397
303.15 K, x2 = 0.0998	803.68	3.91
303.15 K, x2 = 0.2005	793.46	3.144
303.15 K, x2 = 0.302	784.02	2.559
303.15 K, x2 = 0.3991	776.11	2.168
303.15 K, x2 = 0.4989	768.69	1.878
303.15 K, x2 = 0.5994	762.06	1.655
303.15 K, x2 = 0.6975	756.19	1.498
303.15 K, x2 = 0.7959	750.85	1.38
303.15 K, x2 = 0.8984	745.85	1.276
308.15 K, x2 = 0.0998	800.09	3.381
308.15 K, x2 = 0.2005	789.82	2.745
308.15 K, x2 = 0.302	780.35	2.26
308.15 K, x2 = 0.3991	772.42	1.935
308.15 K, x2 = 0.4989	765	1.69
308.15 K, x2 = 0.5994	758.35	1.5
308.15 K, x2 = 0.6975	752.48	1.364
308.15 K, x2 = 0.7959	747.14	1.262
308.15 K, x2 = 0.8984	742.15	1.172
313.15 K, x2 = 0.0998	796.48	2.94
313.15 K, x2 = 0.2005	786.16	2.412
313.15 K, x2 = 0.302	776.66	2.009
313.15 K, x2 = 0.3991	768.72	1.736
313.15 K, x2 = 0.4989	761.28	1.528
313.15 K, x2 = 0.5994	754.63	1.365
313.15 K, x2 = 0.6975	748.76	1.247
313.15 K, x2 = 0.7959	743.42	1.158
313.15 K, x2 = 0.8984	738.43	1.08
318.15 K, x2 = 0.0998	792.81	2.573
318.15 K, x2 = 0.2005	782.46	2.134
318.15 K, x2 = 0.302	772.94	1.795
318.15 K, x2 = 0.3991	764.98	1.566
318.15 K, x2 = 0.4989	757.54	1.388
318.15 K, x2 = 0.5994	750.88	1.247
318.15 K, x2 = 0.6975	745.01	1.145
318.15 K, x2 = 0.7959	739.67	1.066
318.15 K, x2 = 0.8984	734.71	0.999
323.15 K, x2 = 0.0998	789.12	2.266
323.15 K, x2 = 0.2005	778.74	1.896
323.15 K, x2 = 0.302	769.19	1.612
323.15 K, x2 = 0.3991	761.22	1.417
323.15 K, x2 = 0.4989	753.77	1.265
323.15 K, x2 = 0.5994	747.11	1.143
323.15 K, x2 = 0.6975	741.23	1.054
323.15 K, x2 = 0.7959	735.9	0.986
323.15 K, x2 = 0.8984	730.96	0.928
328.15 K, x2 = 0.0998	785.39	2.006
328.15 K, x2 = 0.2005	774.97	1.694
328.15 K, x2 = 0.302	765.4	1.454
328.15 K, x2 = 0.3991	757.43	1.288
328.15 K, x2 = 0.4989	749.97	1.158
328.15 K, x2 = 0.5994	743.31	1.051
328.15 K, x2 = 0.6975	737.44	0.974
328.15 K, x2 = 0.7959	732.12	0.915
328.15 K, x2 = 0.8984	727.21	0.864
333.15 K, x2 = 0.0998	781.62	1.785
333.15 K, x2 = 0.2005	771.18	1.522
333.15 K, x2 = 0.302	761.59	1.317
333.15 K, x2 = 0.3991	753.6	1.175
333.15 K, x2 = 0.4989	746.14	1.063
333.15 K, x2 = 0.5994	739.49	0.97
333.15 K, x2 = 0.6975	733.61	0.902
333.15 K, x2 = 0.7959	728.31	0.851
333.15 K, x2 = 0.8984	723.43	0.807
